These results are taken from patent publication US10149818B2 (UCB PHARMA GMBH, priority 2010, dated 2018).

In brackets after ≈: the same amount, converted by molar mass.

For data set [1] the following is noted: IR tablets twice daily; average distribution volume of 50 liters; cited from earlier work.
In data set [2] the test system is subjects with partial-onset seizures. Nature of the data set: PK-PD modeling of seizure frequency, Emax model, pooled clinical trials (Example 54). It is filed as in vivo, human. An excerpt: Objectives of the PK-PD analysis were to evaluate and describe the correlation between the LCM plasma concentration over time (PK parameter) and the reduction of daily seizures over time (PD parameter) based on the pooled data from the previous clinical human trials.
The evaluation of PK-PD modeling was done based on the Emax model.
The following Table 8 summarizes the PK-PD modeling results using the Emax model.
The slope of the linear regression is equal to the mean daily number of seizures.
Based on the relative difference of the individual slopes during Titration and Maintenance Phase vs Baseline slope and the approximated AUCT,ss,m, the PK-PD evaluation was performed using a linear model, the Emax model, and the Emax 100 model. […] Finally, the Emax model had the lowest weighted sum of squares and was therefore selected as the most appropriate PK-PD model to describe the data. […] The AUC50 is defined as the AUC[…],ss that is needed in individuals to achieve 50% of the maximum effect (decrease in seizure frequency).

Turning to `COC[C@@H](NC(C)=O)C(=O)NCc1ccccc1` [lacosamide, (R)-2-Acetamido-N-benzyl-3-methoxypropionamide], in data set [1], the “maximum dosage-normalized lacosamide steady state plasma levels (Cmax, ss, norm)” value is 40 to 43 ng/mL/mg. Also, the “decrease in partial seizure frequency at AUC50” value in data set [2] (50% of the maximum effect) is 35%. In addition, the “decrease of seizures as % of the maximum effect” value in data set [2] (AUC of 67 μg/mL*h (mean dose 200 mg LCM bid in a typical subject)) worked out at 65%; in data set [2] (human, in vivo), 74%. Further, in data set [2] (Emax model), the “AUC,tau,ss corresponding to kd” value stood at 35 µg·h/mL. Besides, the EC50 in data set [2] (Homo sapiens, Emax model, plasma concentration, read-out: kd, concentration for half of the maximum effect) came to 2.92 µg/mL (≈ 11.7 µM).
